Legend:
[1] = test system: ABUTH; test: Pre-emergence herbicidal action against ABUTH; assay type: in vivo, Abutilon theophrasti; conditions: for Pre-emergence action against ABUTH (herbicidal activity): 80 g/ha, scored visually after 3 weeks vs untreated controls (100% = plants have died, 0% = like control plants); for Pre-emergence action against ABUTH (herbicidal activity in percent): dosage 20 g/ha, scored visually after 3 weeks vs untreated controls, 100% = plants have died, 0% = like control plants
In short: (§1)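 Pre-emergence soil-surface spray of formulated compound (WP or EC; 600 to 800 l/ha; 0.2% wetting agent) over seeds sown in sandy loam. After 3 weeks under greenhouse conditions, damage is estimated visually in percent against untreated plants.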

[2] = test system: ALOMY; test: Pre-emergence herbicidal action against ALOMY; assay type: in vivo, Alopecurus myosuroides; conditions: 80 g/ha, pre-emergence, scored visually after 3 weeks vs untreated controls (100% = plants have died, 0% = like control plants)
In short: as §1

[3] = test system: AMARE; test: Pre-emergence herbicidal action against AMARE; assay type: in vivo, Amaranthus retroflexus
In short: as §1

[4] = test system: AVEFA; test: Pre-emergence herbicidal action against AVEFA; assay type: in vivo, Avena fatua; conditions: 80 g/ha, pre-emergence
In short: as §1

[5] = test system: ECHCG; test: Pre-emergence herbicidal action against ECHCG; assay type: in vivo, Echinochloa crus-galli; conditions: 80 g/ha
In short: as §1

[6] = test system: MATIN; test: Pre-emergence herbicidal action against MATIN; assay type: in vivo, Matricaria inodora
In short: as §1

[7] = test system: POLCO; test: Pre-emergence herbicidal action against POLCO; assay type: in vivo, Polygonum convolvulus; conditions: dosage 80 g/ha
In short: as §1

[8] = test system: SETVI; test: Pre-emergence herbicidal action against SETVI; assay type: in vivo, Setaria viridis; conditions: dosage 80 g/ha
In short: as §1

[9] = test system: STEME; test: Pre-emergence herbicidal action against STEME; assay type: in vivo, Stellaria media
In short: as §1

[10] = test system: VIOTR; test: Pre-emergence herbicidal action against VIOTR; assay type: in vivo, Viola tricolor
In short: as §1

[11] = test system: DIGSA; test: Pre-emergence herbicidal action against DIGSA; assay type: in vivo, Digitaria sanguinalis
In short: as §1

[12] = test system: ABUTH; test: Post-emergence herbicidal action against ABUTH; assay type: in vivo, Abutilon theophrasti; conditions: visual assessment about 3 weeks after treatment vs untreated controls
In short: (§2)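 Spray, one-leaf stage: WP or EC compound in water, 600–800 l/ha, 0.2% wetting agent. Plants held about 3 weeks in the greenhouse, then visually rated in percent of kill compared with untreated controls.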

[13] = test system: AMARE; test: Post-emergence herbicidal action against AMARE; assay type: in vivo, Amaranthus retroflexus; conditions: 20 g/ha, visual assessment about 3 weeks after treatment, 100% = plants have died, 0% = like control plants
In short: as §2

[14] = test system: AVEFA; test: Post-emergence herbicidal action against AVEFA; assay type: in vivo, Avena fatua; conditions: 20 g/ha, visual assessment about 3 weeks after treatment, 100% = plants have died, 0% = like control plants
In short: as §2

[15] = test system: MATIN; test: Post-emergence herbicidal action against MATIN; assay type: in vivo, Matricaria inodora
In short: as §2

[16] = test system: PHBPU; test: Post-emergence herbicidal action against PHBPU; assay type: in vivo, Pharbitis purpurea
In short: as §2

[17] = test system: STEME; test: Post-emergence herbicidal action against STEME; assay type: in vivo, Stellaria media
Method: Seeds of monocotyledonous and dicotyledonous weed and crop plants are laid out in sandy loam soil in wood-fiber pots, covered with soil and cultivated in a greenhouse under good growth conditions. 2 to 3 weeks after sowing, the test plants are treated at the one-leaf stage. The compounds of the invention, formulated in the form of wettable powders (WP) or as emulsion concentrates (EC), are then sprayed onto the green parts of the plants in the form of an aqueous suspension or emulsion at a water application rate equivalent to 600 to 800 l/ha, with addition of 0.2% wetting agent. After the test plants have been left to stand in the greenhouse under optimal growth conditions for about 3 weeks, the action of the preparations is assessed visually in comparison to untreated controls (herbicidal action in percent (%): 100% activity=the plants have died, 0% activity=like control plants). […] The tables below illustrate, in an illustrative manner, the post-emergence herbicidal action of the compounds of the invention, the herbicidal activity being stated in percent.

[18] = test system: VIOTR; test: Post-emergence herbicidal action against VIOTR; assay type: in vivo, Viola tricolor
In short: as §2

[19] = test system: PHBPU; test: Pre-emergence herbicidal action against PHBPU; assay type: in vivo, Pharbitis purpurea; conditions: dosage 80 g/ha
In short: as §1

[20] = test system: VERPE; test: Pre-emergence herbicidal action against VERPE; assay type: in vivo, Veronica persica; conditions: dosage 80 g/ha
In short: as §1

[21] = test system: ECHCG; test: Post-emergence herbicidal action against ECHCG; assay type: in vivo, Echinochloa crus-galli
In short: as §2

[22] = test system: SETVI; test: Post-emergence herbicidal action against SETVI; assay type: in vivo, Setaria viridis; conditions: dosage 20 g/ha
In short: as §2

[23] = test system: VERPE; test: Post-emergence herbicidal action against VERPE; assay type: in vivo, Veronica persica; conditions: 20 g/ha
In short: as §2

[24] = test system: DIGSA; test: Post-emergence herbicidal action against DIGSA; assay type: in vivo, Digitaria sanguinalis
In short: as §2

[25] = 20 g/ha, scored visually after 3 weeks vs untreated controls, 100% = plants have died, 0% = like control plants
[26] = 80 g/ha, scored visually after 3 weeks vs untreated controls (100% = plants have died, 0% = like control plants)

Row | SMILES | Pre-emergence action against ABUTH (herbicidal activity) [1] [%] | Pre-emergence action against ABUTH (herbicidal activity in percent) [1] [%] | Pre-emergence action against AMARE in % [3, 25] [%] | Pre-emergence action against AMARE in % [3, 26] [%] | Pre-emergence action against AVEFA in % [4] [%] | Pre-emergence action against ECHCG in % [5] [%] | Pre-emergence action against MATIN in % ([6]; dosage 20 g/ha) [%] | Pre-emergence action against MATIN in % ([6]; dosage 80 g/ha) [%] | Pre-emergence action against SETVI in % [8] [%] | Pre-emergence action against STEME in % ([9]; dosage 20 g/ha) [%] | Pre-emergence action against STEME in % ([9]; dosage 80 g/ha) [%] | Pre-emergence action against VIOTR in % ([10]; dosage 80 g/ha) [%] | Pre-emergence action against DIGSA in % ([11]; dosage 80 g/ha) [%] | Post-emergence action against ABUTH in % ([12]; dosage 5 g/ha) [%] | Post-emergence action against ABUTH in % ([12]; dosage 20 g/ha) [%] | Post-emergence action at 20 g/ha against AVEFA in % [14] [%] | Post-emergence action against MATIN in % ([15]; dosage 5 g/ha) [%] | Post-emergence action against MATIN in % ([15]; dosage 20 g/ha) [%] | Post-emergence action against PHBPU in % ([16]; dosage 20 g/ha) [%] | Post-emergence action against STEME in % ([17]; 20 g/ha) [%] | also measured
1 | CCCn1nnnc1NC(=O)c1ccc(C(F)(F)F)c(C(=O)NCC)c1Br [Example 3-208] | 100 | 100 | 100 | 100 | 100 | 80 | 100 | 100 | 100 | 90 | 100 | 100 | 80 | 90 | 90 | 80 | 90 | 90 | 90 | 90 | Pre-emergence action against ALOMY (herbicidal activity) [2]: 90%; Pre-emergence action against POLCO in % [7]: 80%; Post-emergence action at 20 g/ha against AMARE in % [13]: 90%; Post-emergence action against PHBPU in % ([16]; dosage 5 g/ha): 80%; Post-emergence action against STEME in % ([17]; dosage 5 g/ha): 80%; Post-emergence action against VIOTR in % ([18]; 5 g/ha): 100%; Post-emergence action against VIOTR in % ([18]; 20 g/ha): 100%
2 | CCCn1nnnc1NC(=O)c1ccc(C(F)(F)F)c(C(=O)NC2CC2)c1CC [Example 3-273] | 100 | 90 | 100 | 100 | 90 | 80 | 90 | 100 | 100 | 90 | 100 | 100 | 100 | 80 | 90 | 80 | 80 | 90 | 80 | 90 | Pre-emergence action against PHBPU in % [19]: 90%; Pre-emergence action against VERPE in % [20]: 100%; Pre-emergence action against VIOTR in % ([10]; dosage 20 g/ha): 100%; Pre-emergence action against DIGSA in % ([11]; dosage 20 g/ha): 90%; Post-emergence action against ECHCG in % ([21]; dosage 5 g/ha): 80%; Post-emergence action against ECHCG in % ([21]; dosage 20 g/ha): 80%; Post-emergence action against SETVI in % [22]: 80%; Post-emergence action against STEME in % ([17]; dosage 5 g/ha): 80%; Post-emergence action against VERPE in % [23]: 80%; Post-emergence action against DIGSA in % ([24]; 5 g/ha): 80%; Post-emergence action against DIGSA ([24]; 20 g/ha): 90%

From patent US12655116B2, “Substituted isophthalic acid diamides” (Bayer Aktiengesellschaft, priority 2020, dated 2026)
